# Assay results as given in BindingDB's records for doi:10.1021/bi035098j (Merck Research Laboratories, 2003).
# What was measured:
# [1] = target: T1, Tyrosine-protein phosphatase non-receptor type 2 (Homo sapiens, UniProt P17706); test: PTP1B and TCPTP Inhibition Assay; settings: pH 6.3; 22 °C
# T1 sequence (P17706 whole entry): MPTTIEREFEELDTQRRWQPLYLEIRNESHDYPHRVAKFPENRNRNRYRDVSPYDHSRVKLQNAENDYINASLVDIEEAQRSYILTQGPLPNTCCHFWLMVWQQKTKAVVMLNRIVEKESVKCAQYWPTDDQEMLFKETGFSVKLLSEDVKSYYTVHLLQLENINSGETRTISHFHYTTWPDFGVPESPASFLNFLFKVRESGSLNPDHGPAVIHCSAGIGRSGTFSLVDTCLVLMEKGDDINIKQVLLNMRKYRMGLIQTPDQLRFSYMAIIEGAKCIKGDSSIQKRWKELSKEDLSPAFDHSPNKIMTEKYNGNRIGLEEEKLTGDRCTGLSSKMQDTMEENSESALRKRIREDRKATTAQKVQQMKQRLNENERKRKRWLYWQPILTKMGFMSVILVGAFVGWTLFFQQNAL
# [2] = target: T2, Tyrosine-protein phosphatase non-receptor type 1 [1-298] (Homo sapiens, UniProt P18031); test: PTP1B and TCPTP Inhibition Assay; settings: pH 6.3; 22 °C
# T2 construct: 1-298
# T2 sequence (P18031 whole entry): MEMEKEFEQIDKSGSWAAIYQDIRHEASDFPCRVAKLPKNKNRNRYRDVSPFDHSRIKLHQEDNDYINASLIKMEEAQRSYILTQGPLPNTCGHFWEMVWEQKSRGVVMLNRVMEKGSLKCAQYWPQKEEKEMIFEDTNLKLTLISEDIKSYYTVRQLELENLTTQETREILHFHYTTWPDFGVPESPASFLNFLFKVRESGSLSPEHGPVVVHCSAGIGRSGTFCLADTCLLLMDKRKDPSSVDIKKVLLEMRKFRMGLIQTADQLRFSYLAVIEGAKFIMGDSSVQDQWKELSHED
Structure (SMILES),IC50 [1],IC50 [2]
O=P(O)(O)C(F)(F)c1ccc(CC(Cc2ccc(C(F)(F)P(=O)(O)O)cc2)(c2ccccc2)n2nnc3ccccc32)cc1,11 nM,
Cc1ccc2cc(-c3ccc(CC(Cc4ccc(C(F)(F)P(=O)(O)O)cc4)(c4ccccc4)n4nnc5ccccc54)cc3)cc(P(=O)(O)O)c2n1 (centres undefined),20 nM,
"CC(C)CCOc1ccc(-c2ccc(CC(Cc3ccc(C(F)(F)P(=O)(O)O)cc3)(c3ccccc3)n3nnc4ccccc43)cc2)cc1P(=O)(O)O (centres undefined) [5-{4-[2-(1H-1,2,3-benzotriazol-1-yl)-3-{4-[difluoro(phosphono)methyl]phenyl}-2-phenylpropyl]phenyl}-2-(3-methylbutoxy)benzene-1-phosphonic acid]",20 nM,6 nM
"COc1ccc(-c2ccc(CC(Cc3ccc(C(F)(F)P(=O)(O)O)cc3)(c3ccccc3)n3nnc4ccccc43)cc2)cc1P(=O)(O)O (centres undefined) [5-{4-[2-(1H-1,2,3-benzotriazol-1-yl)-3-{4-[difluoro(phosphono)methyl]phenyl}-2-phenylpropyl]phenyl}-2-methoxybenzene-1-phosphonic acid]",31 nM,10 nM
"CC(C)CC(O)c1ccc2cc(-c3ccc(CC(Cc4ccc(C(F)(F)P(=O)(O)O)cc4)(c4ccccc4)n4nnc5ccccc54)cc3)cc(P(=O)(O)O)c2n1 (centres undefined) [6-{4-[2-(1H-1,2,3-benzotriazol-1-yl)-3-{4-[difluoro(phosphono)methyl]phenyl}-2-phenylpropyl]phenyl}-2-(1-hydroxy-3-methylbutyl)quinoline-8-phosphonic acid]",17 nM,6 nM
"COC(CC(C)C)c1ccc2cc(-c3ccc(CC(Cc4ccc(C(F)(F)P(=O)(O)O)cc4)(c4ccccc4)n4nnc5ccccc54)cc3)cc(P(=O)(O)O)c2n1 (centres undefined) [6-{4-[2-(1H-1,2,3-benzotriazol-1-yl)-3-{4-[difluoro(phosphono)methyl]phenyl}-2-phenylpropyl]phenyl}-2-(1-methoxy-3-methylbutyl)quinoline-8-phosphonic acid]",36 nM,
"COCOC(CC(C)C)c1ccc2cc(-c3ccc(CC(Cc4ccc(C(F)(F)P(=O)(O)O)cc4)(c4ccccc4)n4nnc5ccccc54)cc3)cc(P(=O)(O)O)c2n1 (centres undefined) [6-{4-[2-(1H-1,2,3-benzotriazol-1-yl)-3-{4-[difluoro(phosphono)methyl]phenyl}-2-phenylpropyl]phenyl}-2-[1-(methoxymethoxy)-3-methylbutyl]quinoline-8-phosphonic acid]",21 nM,11 nM
"O=P(O)(O)C(F)(F)c1ccc(CC(Cc2ccc(-c3ccccc3)cc2)(c2ccccc2)n2nnc3ccccc32)cc1 (centres undefined) [({4-[2-(1H-1,2,3-benzotriazol-1-yl)-2-phenyl-3-(4-phenylphenyl)propyl]phenyl}difluoromethyl)phosphonic acid]",24 nM,38 nM
"O=P(O)(O)C(F)(F)c1ccc(C[C@H](c2ccccc2)n2nnc3ccccc32)cc1 [({4-[(2R)-2-(1H-1,2,3-benzotriazol-1-yl)-2-phenylethyl]phenyl}difluoromethyl)phosphonic acid]",,8040 nM
